# Experiments:
# [1] = target: T1, oleate desaturase (OD) (Trypanosoma brucei, UniProt Q6UCJ6); assay: whole-cell […]-oleate desaturation, argentation-TLC and scintillation counting; assay type: cell-based; conditions: intact bloodstream-form cells; 50 µM 13-TS, 30 min preincubation, 60 min with [14C]-oleate; may act as a metabolite of the added acid
# T1 construct: native full-length enzyme in intact T. brucei cells
# T1 sequence (Q6UCJ6 1-408): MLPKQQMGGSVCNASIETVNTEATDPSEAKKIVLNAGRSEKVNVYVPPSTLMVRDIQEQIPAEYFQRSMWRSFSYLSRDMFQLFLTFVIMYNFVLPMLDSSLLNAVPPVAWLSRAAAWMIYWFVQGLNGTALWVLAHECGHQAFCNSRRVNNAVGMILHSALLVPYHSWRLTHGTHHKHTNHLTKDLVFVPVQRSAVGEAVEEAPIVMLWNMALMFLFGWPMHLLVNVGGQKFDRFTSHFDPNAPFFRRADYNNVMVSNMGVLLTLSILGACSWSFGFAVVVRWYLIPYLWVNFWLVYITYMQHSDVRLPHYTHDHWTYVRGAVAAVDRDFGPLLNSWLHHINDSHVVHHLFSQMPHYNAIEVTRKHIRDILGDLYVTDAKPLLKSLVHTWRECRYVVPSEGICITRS
# [2] = target: T2, stearoyl-CoA desaturase (SCD) (Trypanosoma brucei, UniProt Q57YK1); assay: whole-cell […]-stearate desaturation, argentation-TLC and scintillation counting; assay type: cell-based; conditions: intact bloodstream-form cells; 50 µM 13-TS, 30 min preincubation, 60 min with [14C]-stearate; may act as a metabolite of the added acid
# T2 construct: gene Tb08.11J15.870; native enzyme in intact bloodstream-form cells; carries a cytochrome b-like domain
# T2 sequence (Q57YK1 1-431): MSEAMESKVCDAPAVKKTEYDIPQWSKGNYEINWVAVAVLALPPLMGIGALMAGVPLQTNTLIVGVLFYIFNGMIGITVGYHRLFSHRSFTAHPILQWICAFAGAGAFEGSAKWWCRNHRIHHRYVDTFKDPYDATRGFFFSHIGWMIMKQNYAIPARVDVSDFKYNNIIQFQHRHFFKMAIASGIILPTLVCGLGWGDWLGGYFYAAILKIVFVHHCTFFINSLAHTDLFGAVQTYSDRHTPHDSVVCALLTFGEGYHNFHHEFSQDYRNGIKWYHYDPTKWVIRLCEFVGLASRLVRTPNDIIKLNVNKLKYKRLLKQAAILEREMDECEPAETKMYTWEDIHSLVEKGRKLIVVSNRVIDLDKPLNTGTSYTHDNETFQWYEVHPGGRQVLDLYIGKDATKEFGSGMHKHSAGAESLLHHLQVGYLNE
smiles,measurement,setting,value
"CCCCCSCCCCCCCCCCCC(=O)O [13-TS, 13-thiastearic acid]",% conversion of oleate to linoleate with 50 μM inhibitor (control 20.4%),[1],7.7%
same,% conversion of stearate to oleate with 50 μM inhibitor (control 23.1%),[2],19%

# Reference: article PMC2997783, “Genetic and Chemical Evaluation of Trypanosoma brucei Oleate Desaturase as a Candidate Drug Target” (PLoS ONE, 2010)
